From PubChem BioAssay (NCI)
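Cultured in 96-well plates, cells were exposed to test compound for 48 hours across five concentrations. The concentration for full growth arrest is given as TGI.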

Key:
Experiment in all cases: DTP human tumour cell line panel, 48 h
A498 renal = system: A498 renal
SK-MEL-2 melanoma = system: SK-MEL-2 melanoma
RPMI-8226 leukemia = system: RPMI-8226 leukemia
OVCAR-5 ovarian = system: OVCAR-5 ovarian
NCI-H460 lung = system: NCI-H460 lung
NCI-H23 lung = system: NCI-H23 lung
K-562 leukemia = system: K-562 leukemia
KM12 colon = system: KM12 colon
LOX IMVI melanoma = system: LOX IMVI melanoma
NCI-H522 lung = system: NCI-H522 lung
SN12C renal = system: SN12C renal
A549 NSCLC = system: A549 NSCLC
NCI/ADR-RES ovarian = system: NCI/ADR-RES ovarian
MDA-N = system: MDA-N
NCI-H226 lung = system: NCI-H226 lung
DU-145 prostate = system: DU-145 prostate
MCF7 breast = system: MCF7 breast
HS 578T breast = system: HS 578T breast

Compound	TGI (A498 renal)	TGI (SK-MEL-2 melanoma)	TGI (RPMI-8226 leukemia)	TGI (OVCAR-5 ovarian)	TGI (NCI-H460 lung)	TGI (NCI-H23 lung)	TGI (K-562 leukemia)	TGI (KM12 colon)	TGI (LOX IMVI melanoma)	TGI (NCI-H522 lung)	TGI (SN12C renal)	TGI (A549 NSCLC)	TGI (NCI/ADR-RES ovarian)	TGI (MDA-N)	TGI (NCI-H226 lung)	TGI (DU-145 prostate)	TGI (MCF7 breast)	TGI (HS 578T breast)
O=C1c2ccccc2C(=O)c2c(O)c(O)cc(O)c21	> 100 µM	69.1 µM	70.1 µM	> 100 µM	> 100 µM	> 100 µM	> 100 µM	> 100 µM	> 100 µM	96.1 µM	> 100 µM	> 100 µM	–	–	–	–	–	–
CO[C@H](c1ccccc1)[C@H](O)[C@](O)(c1ccccc1)P(=O)(OC)OC	> 100 µM	> 100 µM	> 100 µM	> 100 µM	> 100 µM	> 100 µM	> 100 µM	> 100 µM	> 100 µM	> 100 µM	> 100 µM	> 100 µM	> 100 µM	> 100 µM	> 100 µM	> 100 µM	–	–
O=C(NN1C(=O)c2ccccc2C1=O)c1ccccc1Nc1ccccc1C(=O)NN1C(=O)c2ccccc2C1=O	–	> 100 µM	> 100 µM	> 100 µM	> 100 µM	> 100 µM	> 100 µM	> 100 µM	> 100 µM	> 100 µM	> 100 µM	–	> 100 µM	> 100 µM	> 100 µM	> 100 µM	> 100 µM	–
COc1cc(CCCC(O)COc2cccc3c2C2(O)CCCCCC32)cc(OC)c1 (stereo unspecified)	34.1 µM	35.7 µM	42 µM	31.5 µM	34.7 µM	32.6 µM	31.1 µM	34.5 µM	–	42.1 µM	31.8 µM	30.8 µM	–	–	33.9 µM	–	–	–
CSc1ccc(-c2cc(-c3nc4ccccc4[nH]3)nc3[nH]c(-c4nc5ccccc5[nH]4)cc(=O)c23)cc1	–	> 100 µM	> 100 µM	> 100 µM	> 100 µM	> 100 µM	> 100 µM	> 100 µM	> 100 µM	> 100 µM	> 100 µM	> 100 µM	> 100 µM	–	> 100 µM	> 100 µM	> 100 µM	> 100 µM
C/C1=C\CC[C@@]2(C)O[C@@H]2[C@H]2OC(=O)C(C)C2C[C@H]1O (stereo partly specified)	–	> 100 µM	> 100 µM	> 100 µM	> 100 µM	> 100 µM	> 100 µM	> 100 µM	> 100 µM	> 100 µM	> 100 µM	> 100 µM	> 100 µM	–	–	> 100 µM	> 100 µM	> 100 µM
CSC(=N)N1N=C2c3ccccc3CC[C@@H]2[C@@H]1c1ccccc1	35.2 µM	29.2 µM	35.5 µM	34.7 µM	27.2 µM	35.3 µM	39.7 µM	27.9 µM	28.5 µM	27.8 µM	31.2 µM	34.2 µM	–	–	22.6 µM	–	–	–
CC(C)N1CCCOC(c2ccc([N+](=O)[O-])cc2)O1 (stereo unspecified)	> 100 µM	> 100 µM	–	> 100 µM	> 100 µM	> 100 µM	> 100 µM	> 100 µM	> 100 µM	> 100 µM	> 100 µM	> 100 µM	> 100 µM	> 100 µM	> 100 µM	> 100 µM	> 100 µM	–
N#CC1=C(N)Nc2nc3ccccc3n2C1c1ccccc1 (stereo unspecified)	96.1 µM	> 100 µM	31 µM	> 100 µM	> 100 µM	> 100 µM	> 100 µM	> 100 µM	> 100 µM	–	> 100 µM	> 100 µM	> 100 µM	–	–	> 100 µM	> 100 µM	> 100 µM
O=C(Nc1ccccc1)C(=O)C(C(=O)c1ccccc1)C(c1ccccc1)c1ccccc1 (stereo unspecified)	–	–	> 10 µM	–	–	> 10 µM	> 10 µM	–	> 10 µM	–	> 10 µM	> 10 µM	–	> 10 µM	–	> 10 µM	> 10 µM	–
COc1ccc(NC(C)=O)cc1N1C(=O)/C(=C\c2cc(OC)c(OC)c(OC)c2)S(=O)(=O)C1c1ccccc1 (stereo unspecified)	> 100 µM	> 100 µM	> 100 µM	> 100 µM	> 100 µM	> 100 µM	> 100 µM	> 100 µM	> 100 µM	> 100 µM	> 100 µM	> 100 µM	> 100 µM	> 100 µM	> 100 µM	> 100 µM	> 100 µM	–
CC1=[N+]([O-])C(C)(C)N(O)C1(C)C	> 100 µM	> 100 µM	> 100 µM	> 100 µM	> 100 µM	> 100 µM	> 100 µM	> 100 µM	> 100 µM	> 100 µM	> 100 µM	> 100 µM	> 100 µM	> 100 µM	> 100 µM	> 100 µM	> 100 µM	–
CNC(=O)CN(CC(N)=O)C(=O)NC	> 100 µM	> 100 µM	> 100 µM	> 100 µM	> 100 µM	> 100 µM	> 100 µM	> 100 µM	> 100 µM	> 100 µM	–	> 100 µM	–	–	> 100 µM	–	–	–
C=C(Cl)C(Br)(CBr)CCC(Br)C(C)(C)Br (stereo unspecified)	> 10 µM	–	4.96 µM	> 10 µM	–	> 10 µM	> 10 µM	> 10 µM	–	> 10 µM	> 10 µM	> 10 µM	–	> 10 µM	> 10 µM	> 10 µM	5.32 µM	–
CCOC(=O)C1C(c2ccc([N+](=O)[O-])cc2)NC(c2ccc([N+](=O)[O-])cc2)C(C(=O)OC)S1(=O)=O (stereo unspecified)	–	> 100 µM	> 100 µM	> 100 µM	> 100 µM	> 100 µM	> 100 µM	> 100 µM	> 100 µM	> 100 µM	> 100 µM	> 100 µM	–	–	> 100 µM	–	–	–
CCCCCCCCCCCCNC1(C)CNCCCNCCNCCCNC1	–	3.34 µM	3.55 µM	4.54 µM	2.69 µM	3.12 µM	–	2.89 µM	3.25 µM	3.22 µM	3.05 µM	3.2 µM	–	–	3.21 µM	–	–	–
